The values below come from BindingDB's records for patent US20250084074 (Merck Patent, 2025).

Usually IC50 stands for the concentration that gives 50% inhibition. A high value points to weaker potency in that assay.

The assay addresses T1, Kinesin-like protein KIFC1 (Homo sapiens, UniProt Q9BW19).
T1 sequence (Q9BW19 whole entry): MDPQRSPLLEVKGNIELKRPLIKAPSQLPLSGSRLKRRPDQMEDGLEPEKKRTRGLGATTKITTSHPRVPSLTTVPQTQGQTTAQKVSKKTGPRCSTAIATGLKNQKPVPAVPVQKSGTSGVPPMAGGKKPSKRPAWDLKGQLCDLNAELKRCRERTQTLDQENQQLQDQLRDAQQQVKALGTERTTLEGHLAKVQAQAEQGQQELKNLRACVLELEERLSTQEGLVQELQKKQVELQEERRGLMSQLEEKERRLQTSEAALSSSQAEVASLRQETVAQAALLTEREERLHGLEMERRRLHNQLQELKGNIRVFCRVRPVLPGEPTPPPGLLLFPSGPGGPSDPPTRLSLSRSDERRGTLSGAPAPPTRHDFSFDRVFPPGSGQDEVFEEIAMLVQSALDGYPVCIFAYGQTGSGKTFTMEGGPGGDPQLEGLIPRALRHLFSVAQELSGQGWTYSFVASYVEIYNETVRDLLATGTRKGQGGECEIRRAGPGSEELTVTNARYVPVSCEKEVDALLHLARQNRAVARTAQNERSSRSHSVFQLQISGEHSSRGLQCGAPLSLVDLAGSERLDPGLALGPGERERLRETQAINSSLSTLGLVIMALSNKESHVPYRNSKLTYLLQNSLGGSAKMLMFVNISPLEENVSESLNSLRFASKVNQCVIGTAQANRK
In words: Inhibitory Activities Against HSET-HSET ADP-Glo Assay. As for the experimental part:
Reagents: (+4° C. Storage)Paclitaxel Prod.No.TXD.01 2 mM in DMSO (from Universal Biologicals Cambridge).Tubulin Protein (Pre-formed Microtubules): Bovine Brain Prod.No.MT001-XL Lot.025 10 mg/mL (from Universal Biologicals Cambridge).Reagents: (−80° C. Storage)MT001-XL—Tubulin Protein (Pre-formed Microtubules): Bovine Brain—reconstituted in buffer—15 mM PIPES pH7, 1 mM MgCl2, 20 μM paclitaxel (aliquots at 10 mg/mL) from Universal Biologicals Cambridge.HSET full length protein—Current batch is FL HSET Prep1 (SEQ-000096_002-01_01)Buffer is 20 mM Hepes pH 7.5, 200 mM NaCl, 2 mM TCEP, 5% glycerol (5 μL aliquots at 10.2 μM)Reagents: (−20° C. Storage)ADP-Glo Kinase Assay kit (Promega Prod.No.V9102) 10,000 assay pointsADP-Glo reagent (50 mL), Kinase Detection Reagent (100 mL), and Ultrapure ATP (10 mM) aliquotedBuffer Stocks (filtered and stored at rt for up to 1 month)HEPES acid, 4-(2-Hydroxyethyl)piperazine-1-ethanesulfonic acid MW:238, 238.3 mg/mL=1 M7149 mg/30 mL=1M (pH to 6.8 with 5 M NaOH)PIPES, 1,4-Piperazinediethanesulfonic acid MW: 302.4, 30.24 mg/mL=100 mM; 907.2 mg/30 mL=100 mM (pH to 7 with 5 M NaOH, white cloudy suspension until the pH changes)EGTA, Ethylene glycol-bis(2-aminoethylether)-N,N,N′,N′-tetraacetic acid MW: 380.35, 38.035 mg/mL=100 mM1901.75 mg/50 mL=100 mM (pH to ˜7 with 5 M NaOH)—takes a long time to get into solution and for pH to stabilizeTriton-X-100, MW: 625, 62.5 mg/mL=100 mM (6.25% w/v) (viscous, pipette Triton X-100 with a Gilson using a trimmed pipette tip)ECHO ProtocolCreate an ECHO intermediate plate by adding 24.5 μL DMSO to columns 1 & 2, and 40 μL DMSO to columns 23 & 24 of an ECHO 384PP plateAdd 100 nL of compound/DMSO per well in 384-well Proxi-Plate Plus (white) —Perkin Elmer Cat #6008289 using ECHO dose response protocol 100 nL normal to Assay buffer (Keep on ice): HEPES pH 6.8, MgCl2, EGTA, Triton X-100, DTT, HPLC H2O Microtubule Working Solution (3.2):1 ml PM buffer: PIPES pH 7.0, MgCl2, HPLC H2O, Paclitaxel, mix well, store at rtThen add 26.4 μL of 10 mg/ml microtubules to 724 μL of the above PM buffer to make 750 μL of microtubule working solution @350 μg/mL microtubules (store at rt)Stock HSET enzyme solution (3.1)—keep on iceAdd 1.33 μL 10.2 μM HSET Prepi (SEQ-000096_002-01_01) to 1358 μL assay buffer to make a 10 nM stock for a 5 nM final assay concentration (1/1020 dilution).HSET/Microtubule working solution (3.3)Mix solutions 3.1 and 3.2 in the ratio of 2.5:1 (1214.3 μL 3.1+485.7 μL 3.2) keep at rt for 15 min3.2 is diluted 3.5-fold, 3.1 is diluted 1.4-fold BLANK solution is 357 μL 2XAB+143 μL microtubule working solution 3.2. (Same proportions as HSET/Microtubule working solution (3.3))ATP Working solution is 1 μL 10 mM UltraPure ATP (Promega kit)+999 μL ddH20 gives 10 μM ATP for a 3 μM final assay concentration, stored on ice.Assay procedure in PROXIPLATE 384 PLUS WHITE (Perkin Elmer) plates (Remove 2.4 mL ADP Glo and 4.5 mL Kinase detection reagent from freezer to warm up to rt)Add 3.5 μL BLANK solution to assay plate (column 12)Add 3.5 μL HSET/Microtubule solution (3.3) (columns 1-11 & 13-24)Centrifuge at 1000 rpm for 1 min(pre-incubate enzyme and compound for 10 min)Add 1.5 μL of 10 μM ATP to start reaction gives a final [HSET] of 5 nM, [ATP] of 3 μM and [microtubule] of 70 μg/mL, centrifuge at 1000 rpm for 1 min and incubated at rt for 80 min.After the 80-minute incubation, stop reaction by adding 5 μL ADP-Glo reagent to all wells. Centrifuge for 1 min at 1000 rpm, leave for 40 min at rt.In the dark/away from direct light, add 10 μL Kinase Detection Reagent (KDR) to all wells, Seal plate with a Topseal (Perkin Elmer Cat #6050185) and centrifuge as above, leave for 40 min at rt covered in foil.
For orientation: ADP-Glo turns the ADP formed in a reaction into a luminescent signal.

Structures are written as SMILES.

Turning to `Cc1nc(NC(=O)CCNc2nccc3ccc(C#N)cc23)sc1C(C)(C)C` [US20250084074, Example 50], the midpoint of inhibition, the IC50, lay at 199 nM. That is a sub-micromolar value.
Turning to `Cc1nc(NC(=O)CCNc2nccc3ccc(C#N)cc23)sc1C1(C(F)(F)F)CC1` [US20250084074, Example 51], the IC50 turned out to be 1600 nM.
Compound `Cc1nc(NC(=O)CCNc2nccc3c(F)cc(C#N)cc23)sc1C(C)(C)C` [US20250084074, Example 53] gave an IC50 of 240 nM. Compared with the last compound, the IC50 is about 6.7-fold lower.
The compound `Cc1nnn(-c2ccc3ccnc(NCCC(=O)Nc4nc(C)c(C(C)(C)C)s4)c3c2)n1` [US20250084074, Example 58] returned an IC50 of 14 nM.
The compound `Cc1nc(-c2ccc3ccnc(NCCC(=O)Nc4nc(C)c(C(C)(C)C)s4)c3c2)no1` [US20250084074, Example 75] returned a half-maximal inhibitory concentration (IC50) of 78 nM.
`Cc1nc(-c2ccc3ccnc(N[C@H]4C[C@@H](C(=O)Nc5nc(C)c(Br)s5)C4)c3c2)no1` [US20250084074, Example 97] gave an IC50 of 1150 nM.
For `CCCc1nc(-c2cnc(NC(=O)CCNc3nccc4ccc(-c5noc(C)n5)cc34)s2)no1` [US20250084074, Example 119], the 50% inhibitory concentration (IC50) is 67 nM. Against the preceding compound, the IC50 is about 17-fold lower.
Compound `Cc1nc(-c2cccc(C(=O)NCCC(=O)Nc3nc(C)c(C(F)(F)F)s3)c2)no1` [US20250084074, Example 139] returned an IC50 of 2160 nM.
As for `CCCOC(=O)c1sc(NC(=O)[C@@H](N)CNC(=O)c2cccc(-c3noc(C)n3)c2)nc1C` [US20250084074, Example 160], the figure is 54 nM; as for `CCc1nc(NC(=O)[C@@H](N)CNC(=O)c2cccc(-c3noc(C)n3)c2)sc1C(C)(C)C` [US20250084074, Example 161], 2150 nM; as for `CCCOC(=O)c1sc(C(=O)N2CC[C@@H](NC(=O)c3cccc(-c4noc(C)n4)c3)C2)nc1C` [US20250084074, Example 241], 3080 nM.
As for `Cc1nc(-c2cccc(C(=O)NCCC(=O)Nc3cnn(C(=O)OC(C)(C)C)c3)c2)no1` [US20250084074, Example 274], the figure is 6400 nM.
